Assay results as given in patent publication US11738034B2, “Triphenylphosphonium-derivative compounds for eradicating cancer stem cells” (LUNELLA BIOTECH, INC., priority 2017, dated 2023).
pIC50: −log10 of the molar value.

Tests used:
[1] = system: MCF-7 human breast cancer cells; experiment: ATP-depletion assay (CellTiter-Glo & Hoechst 33342) in MCF-7 cells; format: cell-based; conditions: for Hoechst staining (%) / ATP level (%): MCF-7 cell line, 50 μM treatment for 72 hours, normalized to control; for Hoechst staining (%): cell viability; for effect on ATP levels in initial screen (positive hit): MCF-7, ATP depletion screen of nine TPP-derivatives; for effect on ATP levels in validation (FIGS. 2-4): MCF-7 treated for 72 h
Text: In order to identify new molecules that can be used to target mitochondria within CSCs, the inventors screened a variety of TPP-derivatives as described herein, by employing CellTiter-Glo to measure intracellular levels of ATP in adherent cancer cells (MCF-7) in 96-well plates. As 85% of cellular ATP is normally derived from mitochondrial metabolism, ATP levels are an excellent read-out to monitor mitochondrial function. In parallel, the same 96-well plates were also stained with Hoechst 33342, to measure DNA content, to gauge cell viability. Therefore, we randomly selected 9 TPP derivatives and subjected them to screening in our assay system.
With respect to the ATP-depletion assay (with CellTiter-Glo & Hoechst 33342), MCF-7 cells were treated with different TPP derivatives for 72 hours in a black 96-well plate then wells were washed with PBS and were stained with Hoechst 33342 dye at a final concentration of 10 μg/ml. Fluorescence was read by a plate reader at 355 nm (excitation), 460 nm (emission). After washing with PBS CellTiterGlo luminescent assay (Promega) was performed according to the manufacturer's protocols to determine intracellular ATP levels in the Hoechst dye stained cells. Both the fluorescent and luminescent data were normalized to control levels and were shown as percentage for comparison.

MCF-7 cells = experiment: Mitochondrial oxygen consumption rate (OCR), Seahorse XFe96; format: cell-based, human; conditions: MCF-7, Seahorse, FIGS. 6-8
Text: Some embodiments of the present approach relate to identifying TPP-derivatives compounds that target mitochondria in CSCs and represent potential anti-cancer therapies. To further validate that the ATP level reduction of the TPP compounds was indeed due to the inhibition of mitochondrial function, we directly measured mitochondrial oxygen consumption rates (OCR) using the Seahorse XFe96 metabolic flux analyser.
FIG. 6 illustrates the impaired mitochondrial function of MCF-7 cells after treatment with TPP Compound 1. FIGS. 7A and 7B illustrate the impaired mitochondrial function of MCF-7 cells after treatment with either TPP Compound 2 or TPP Compound 3. […] Oxygen consumption rate (OCR) was measured with a Seahorse XF96 Extracellular Flux Analyzer. Data are represented as mean+/−SEM. […] For FIG. 6, **p<0.01; ***p<0.001; indicates significance, all relative to the control. […] For FIG. 7, **p<0.01; ***p<0.001; indicates significance, all relative to the control. […] And for FIG. 8, **p<0.01; ***p<0.001; indicates significance, all relative to the control.
For measuring the mitochondrial OCR, mitochondrial function was determined by using the XF Cell Mito Stress Test Kit (Seahorse Bioscience, MA, USA) with a Seahorse XFe96 Extracellular Flux Analyzer (Seahorse Bioscience, MA, USA). MCF-7 cells were seeded in a specialized 96-well tissue culture plate (XF96 microplate). The next day, the TPP derivatives were added and the plate was incubated for 72 hours. Before the experiment media was changed to XF base medium (including 1 mM pyruvate, 2 mM glutamine and 10 mM glucose), cells were incubated at 37° C. in a CO2-free atmosphere for one hour before measurement. After detection of basal OCR (an indicator for mitochondrial respiration) OCR responses were evaluated towards the application of oligomycin (1 μM), FCCP (600 nM), and the combination of antimycin (1 μM) and rotenone (1 μM). From these measurements various parameters of mitochondrial function were determined. To determine cell viability in the measured wells sulphorodamine (SRB) assay was performed. Oxygen consumption rate values were then normalized to the given SRB values.

[2] = system: normal fibroblasts (hTERT-BJ1); experiment: Cell viability (Hoechst) and intracellular ATP levels in normal fibroblasts; format: cell-based, human; conditions: hTERT-BJ1, 1 μM, 72 h
Method: Cell viability and intracellular ATP levels were determined in the same treated samples. Hoechst staining (%) of hTERT-BJ1 human fibroblasts (black); ATP level (%) of hTERT-BJ1 human fibroblasts (dotted); Hoechst staining (%) of MCF-7 cells (inclined lines); ATP level (%) of MCF-7 cells (white). TPP treatments at 1 μM, 72 h. Data are represented as mean+/−SEM. *p<0.05; **p<0.01; indicates significance, all relative to the control.
With respect to cell culture and reagents, the human breast adenocarcinoma cell line (MCF-7) was from the American Type Culture Collection (ATCC). hTERT-BJ1 cells were from Clontech, Inc. MCF-7 and hTERT-BJ1 cells were grown in DMEM supplemented with 10% fetal bovine serum, GlutaMAX and 1% penicillin-streptomycin and incubated at 37 C in a humidified 5% CO2 incubator. The medium was changed 2-3 times/week. […]
With respect to the ATP-depletion assay (with CellTiter-Glo & Hoechst 33342), MCF-7 cells were treated with different TPP derivatives for 72 hours in a black 96-well plate then wells were washed with PBS and were stained with Hoechst 33342 dye at a final concentration of 10 μg/ml. Fluorescence was read by a plate reader at 355 nm (excitation), 460 nm (emission). […]

MCF-7 breast CSCs = experiment: 3D Spheroid (mammosphere) assay, CSC propagation; format: cell-based, human; conditions: MCF-7, treated for 5 days in mammosphere media; read-out: IC-50, CSC propagation (mammosphere formation)
Method: Following validation, the inventors evaluated the effects of these TPP-derivative compounds on the propagation of CSCs, using the mammosphere assay as a read-out. […] The data presented in FIG. 9, from left to right, are TPP-derivatives in the following order: 2,4-dichlorobenzyl-TPP (black); 1-naphthylmethyl-TPP (inclined lines); 3-methylbenzyl-TPP (dotted lines); 2-chlorobenzyl-TPP (white); 2-butene-1,4-bis-TPP (horizontal lines). Cells were treated for 5 days in mammosphere media. Data are represented as mean+/−SEM.
For the 3D Spheroid (mammosphere) assay, a single cell suspension of MCF-7 cells was prepared using enzymatic (lx Trypsin-EDTA, Sigma Aldrich, #T3924) and manual disaggregation (25 gauge needle) to create a single cell suspension. […] Different TPP derivatives were previously diluted in the mammosphere media before addition of cells. […] After 5 days of culture, spheres >50 μm were counted using an eyepiece graticule and mammosphere numbers were normalized to control treatments (cells treated with vehicle only).

Row | SMILES | Hoechst staining (%) [1] [%] | ATP level (%) [1] [%] | effect on ATP levels in initial screen (positive hit) [1] | effect on ATP levels in validation (FIGS. 2-4) [1] | effect on mitochondrial oxygen consumption (MCF-7 cells) | also measured
1 | c1ccc([P+](Cc2ccc(C[P+](c3ccccc3)(c3ccccc3)c3ccccc3)cc2)(c2ccccc2)c2ccccc2)cc1 [p-xylylenebis-TPP, p-xylylene-bis-TPP] | 69.1 | 43.9 |  |  |  | 
2 | N#CC[P+](c1ccccc1)(c1ccccc1)c1ccccc1 [cyanomethyl-TPP] | 97.2 | 95.1 |  |  |  | 
3 | Clc1ccc(C[P+](c2ccccc2)(c2ccccc2)c2ccccc2)c(Cl)c1 [2,4-dichlorobenzyl-TPP] |  |  | significantly reduced ATP levels | progressively deplete cellular ATP levels | effectively inhibit mitochondrial oxygen consumption | 
4 | CC1(C)CC(NC(=O)C[P+](c2ccccc2)(c2ccccc2)c2ccccc2)CC(C)(C)N1[O] [mito-TEMPO, (2-(2,2,6,6-Tetramethylpiperidin-1-oxyl-4-ylamino)-2-oxoethyl)triphenylphosphonium chloride, reference compound] | 100.0 | 100.0 |  |  |  | 
5 | C(=CC[P+](c1ccccc1)(c1ccccc1)c1ccccc1)C[P+](c1ccccc1)(c1ccccc1)c1ccccc1 [2-butene-1,4-bis-TPP] |  |  | significantly reduced ATP levels | depletes ATP levels, relative to cell number | effectively inhibits mitochondrial oxygen consumption | decrease of ATP levels in MCF-7 cancer cells ([1]; MCF-7, 1 μM, 72 h): ~85%; reduction of cell viability in MCF-7 cancer cells ([1]; MCF-7, 1 μM, 72 h): ~65%; fold more effective at reducing ATP levels in cancer cells, relative to normal fibroblasts ([1]; MCF-7 versus hTERT-BJ1, 1 μM): 4.7 fold; fold more effective at reducing cell viability in cancer cells (versus fibroblasts) ([1]; MCF-7 versus hTERT-BJ1, 1 μM): 2.8 fold; effect on cell viability in human fibroblasts [2]: no effect on cell viability; reduction of ATP levels in human fibroblasts [2]: 25%; pIC50 (MCF-7 breast CSCs): > 6.30
6 | Cc1cccc(C[P+](c2ccccc2)(c2ccccc2)c2ccccc2)c1 [3-methylbenzyl-TPP] |  |  | significantly reduced ATP levels | progressively deplete cellular ATP levels | effectively inhibit mitochondrial oxygen consumption | 
7 | c1ccc([P+](Cc2cccc3ccccc23)(c2ccccc2)c2ccccc2)cc1 [1-naphthylmethyl-TPP] |  |  | significantly reduced ATP levels | progressively deplete cellular ATP levels | effectively inhibit mitochondrial oxygen consumption | pIC50 (MCF-7 breast CSCs): < 5.30
8 | Clc1ccccc1C[P+](c1ccccc1)(c1ccccc1)c1ccccc1 [2-chlorobenzyl-TPP] |  |  | significantly reduced ATP levels | progressively deplete cellular ATP levels | effectively inhibit mitochondrial oxygen consumption | 
9 | N#Cc1ccc(C[P+](c2ccccc2)(c2ccccc2)c2ccccc2)cc1 [4-cyanobenzyl-TPP] | 72.7 | 68.2 |  |  |  | 
